The text below walks through data of a melting point compilation (Tetko et al.).

For `FC(F)(F)C(F)(F)C(F)(F)N(C(F)(F)C(F)(F)C(F)(F)F)C(F)(F)C(F)(F)C(F)(F)F`, the melting point is -52 °C.

The molecule `CC1=CC(=O)CCC1` yielded a melting point of -21 °C.

Take `Nc1ccc(Sc2cc(Cl)ccc2Cl)nc1`: the melting point lay in the range of 108 to 109 °C.

For `CC1CS1` (stereo not drawn), the melting point was -91 °C.

In turn, `O=C(NCSCc1ccccc1)c1ccccc1` gave a melting point of 79 to 80 °C.

Consider `O=C(C=Cc1ccccc1)c1cccc(C(=O)C=Cc2ccccc2)c1`, for which the melting point was 142 °C.

`Cc1cc2cc3c(C)cc(=O)oc3c(C)c2o1`: the melting point lay in the range of 230 to 234 °C.

For the molecule `CCCCc1ccc(/N=N/c2ccc(OC)cc2)cc1`, the melting point lay within 31 to 48 °C.

Turning to `NNC(=S)NCCc1ccccc1`, the melting point fell in the range of 112 to 114 °C.

Take `CCCCCCCCCCCCCCCCCBr`: the melting point was 32 °C.

The molecule `Cc1ccc(/N=N/c2c(N)nn3c(C)cc(=O)[nH]c23)cc1` displayed a melting point of 285 °C.

`O=c1ccn(C2OC(CO)C(O)C2O)c(=O)[nH]1` (stereo not drawn) registered a melting point of 168 °C.

The molecule `CCOC(=O)c1cncc(Br)c1` had a melting point of 41 °C.

In turn, `COC(=O)c1ccccc1OCc1ccccc1` showed a melting point of 47 °C.

In turn, `COC(=O)c1cc(C)ccc1O` gave a melting point of -1 °C.

`O=C(O)c1ccccc1` displayed a melting point of 122 °C.

As for `NC(=O)Cc1ccc(F)cc1Cl`, the melting point is 171 to 173 °C.

In turn, `CC(=O)c1ccc(I)s1` gave a melting point of 128 °C.

`Cc1ncccc1O` gave a melting point of 168 °C.

`Cc1nc(N)nc(NN)n1` had a melting point of 250 °C.

In turn, `Cc1ccnc2c1NC(=O)c1cccnc1N2C1CC1` gave a melting point of 265 °C.

The molecule `CC(=O)/C=C1\Cc2ccccc21` returned a melting point of 79 to 79.6 °C.

In the case of `NC(=S)c1ccc(C2SCCS2)cc1`, the melting point is 174 °C.

For `O=C1c2ccccc2-c2ccc(Br)cc21`, the melting point is 143 to 149 °C.

In turn, `COc1cccc(/N=C(\C)c2c(O)c3ccccc3n(-c3ccccc3)c2=O)c1` yielded a melting point of 178 to 179 °C.

The molecule `c1ccc(-c2nnc3n2CN(c2ccccn2)CS3)cc1` returned a melting point of 223 to 224 °C.

`C#Cc1ccc(-c2cnco2)cc1` showed a melting point of 76 to 77 °C.

In turn, `COc1ccc2c(OC(C)=O)c(OC)c(OC)c(OC(C)=O)c2c1` returned a melting point of 77.5 °C.

For `CCCCCCCC(C)CC` (stereo not drawn), the melting point was -92.9 °C.

Regarding `Cc1ccc(OC(=O)C(C)(c2ccccc2)c2ccccc2)cc1`, the melting point was 111 °C.

`O=S1(=O)OC(c2cc(Br)c(O)c(Br)c2)(c2cc(Br)c(O)c(Br)c2)c2c(Br)c(Br)c(Br)c(Br)c21` yielded a melting point of 203 to 205 °C.

For `O=C=Nc1ccc(Cl)cc1`, the melting point turned out to be 30 °C.

`CCN(CC)CCNC(=O)c1cc(Cl)c(N)cc1OC` had a melting point of 146 °C.

`N#CC(=CNNc1ccccc1)c1ccccc1` displayed a melting point of 155 to 156 °C.

`C=CC1CN2CCC1CC2C12Nc3ccccc3C1(O)CCO2` (stereo not drawn): the melting point was determined as 186 °C.

Take `COc1cc(O)c2c(=O)c3cc(O)ccc3oc2c1`: the melting point was found to be 266 °C.

Regarding `Nc1ccc(C=CC(=O)c2ccccc2)cc1`, the melting point amounted to 151 °C.

For the molecule `COC(=O)CCc1cc(CCC(=O)OC)c([N+](=O)[O-])cc1[N+](=O)[O-]`, the melting point was found to be 71 °C.

On to `Nc1c(C=O)c(=O)oc2ccccc12`, for which the melting point lay within 267 to 268 °C.

The molecule `COc1cc(C(=O)Oc2ccc(/C=C/C(=O)c3ccccc3)cc2)cc(OC)c1OC` gave a melting point of 95 °C.

Regarding `COc1ccc(-c2ccccc2)cc1NNC(=O)OC(C)C`, the melting point was 122 °C.

As for `CCCc1ssc(=S)c1C`, the melting point stood at 49 °C.

Consider `COC(=O)c1ccccc1[N+](=O)[O-]`, for which the melting point is -13 °C.

As to `O=CNc1ccc(C2=NNC(=O)CC2)cc1`, the melting point lay within 253 to 256 °C.

For the molecule `O=C1CCCC1C1(O)C(=O)Nc2ccccc21` (stereo not drawn), the melting point was 187 °C.

As to `Cc1onc(-c2ccccc2)c1C(=O)O`, the melting point is 192 to 193 °C.

`Nc1cc(-c2ccccc2)no1` came in with a melting point of 109 °C.

`CC1COCc2cc3c(cc21)C(C)(C)C(C)C3(C)C` (stereo not drawn) showed a melting point of -5 °C.

`O=C(O)[C@@H]1Cc2ccccc2CN1`: the melting point stood at 300 °C.

As for `CC(=O)OCC1OC=CC(OC(C)=O)C1OC(C)=O` (stereo not drawn), the melting point was 54 °C.

`CC(C)=CCCC=C(C)C` registered a melting point of -74.4 °C.

Turning to `CCOC(=O)c1c2n(n(-c3ccc([N+](=O)[O-])cc3)c1=N)C(=O)CS2`, the melting point fell in the range of 145 to 148 °C.

In turn, `CN(CC(=O)O)C(=O)COC(=O)c1ccccc1` gave a melting point of 106 °C.

`CNCCc1c[nH]c2ccccc12` yielded a melting point of 88 °C.

As for `C[C@@]12C=CC(=O)N1[C@@H](c1ccccc1)CO2`, the melting point lay in the range of 88 to 92 °C.

For `Cc1oc(-c2ccccc2)cc1C(=O)O`, the melting point came to 183 °C.

`COC(=O)c1sc(C(F)(F)F)c(-c2ccccc2)c1S(=O)(=O)Cl` gave a melting point of 74 to 75 °C.

With `CCCCCCc1ccc2c(c1)CCC2`, the melting point is -34 °C.

`CCCCCCCCCCCCCCCc1ccccc1` displayed a melting point of 22 °C.

`Cc1[nH]nc(-c2ccccc2)c1C` displayed a melting point of 104 °C.

In turn, `[O-][P+](O)(O)CCN(CP(c1ccccc1)c1ccccc1)CP(c1ccccc1)c1ccccc1` yielded a melting point of 147 °C.

Turning to `Cc1oc(-c2ccccc2)nc1CCl`, the melting point lay within 83 to 84 °C.

For the molecule `Cc1cc(C(=O)O)c(C(F)(F)F)o1`, the melting point lay in the range of 124 to 126 °C.

`CCc1ccccc1[N+](=O)[O-]` gave a melting point of -12.3 °C.

For `CCC(N)C(O)c1ccccc1` (stereo not drawn), the melting point came out at 79.5 °C.

With `O=[N+]([O-])c1cc([N+](=O)[O-])c(C(/C(=N/Nc2ccccc2)c2ccccc2)c2ccccc2)cc1Cl` (stereo not drawn), the melting point was in the range of 195 to 196 °C.

`O=[N+]([O-])c1ccc(C(O)C(O)CO)cc1` (stereo not drawn) returned a melting point of 93 to 97 °C.

For the molecule `C=CCSc1nnc(-c2cc(Br)cc(Br)c2O)n1N`, the melting point stood at 162 °C.

The molecule `O=C(NCc1ccc(S(=O)(=O)Cl)s1)c1ccccc1` returned a melting point of 123 to 125 °C.

With `O=C(Nc1cccnc1Cl)c1ccccc1Cl`, the melting point fell in the range of 115 to 117 °C.

As to `Oc1ccc(SC(F)(F)F)cc1`, the melting point was determined as 59 °C.

In the case of `O=C1CC(c2ccccc2)Cc2ccncc21` (stereo not drawn), the melting point amounted to 83 °C.

Turning to `FC(F)(Cl)C(Cl)(Cl)C(F)(F)Cl`, the melting point was -42.9 °C.

`N#CCCNc1ccccc1` returned a melting point of 52.5 °C.

The molecule `Fc1cccc(Br)n1` yielded a melting point of 32 °C.

For the molecule `CC(=NO)c1ccc2c(c1)CC(C)O2` (stereo not drawn), the melting point was in the range of 83 to 85 °C.

For `COc1ccc2c(c1)CCCN2`, the melting point turned out to be 42.5 °C.

`Nc1ccc(-c2ccc(N)c(Cl)c2)cc1Cl` yielded a melting point of 132 °C.

With `CN(C)c1ccc(C=CC(=O)c2ccccc2)cc1`, the melting point worked out at 114 °C.

Regarding `ON=C1C2CC3CC(C2)CC1C3`, the melting point is 150 to 151 °C.

With `O=C1CCC2(CC1)OCCO2`, the melting point lay in the range of 74 to 76 °C.

In turn, `Cc1n[nH]c(C)c1/C=C/c1ccccc1` had a melting point of 184 °C.

Take `O=C(Oc1c(F)c(F)c(F)c(F)c1F)c1ccc(OC2CCOCC2)nc1`: the melting point is 114 to 118 °C.

For the molecule `COC(=O)c1ccc2[nH]ccc2c1`, the melting point stood at 125 °C.

`CCCOc1ccc([N+](=O)[O-])cc1NC(C)=O` came in with a melting point of 102 °C.

Consider `C=C1C(=O)OC2CC(C)C3C=CC(=O)C3(C)C(O)C12` (stereo not drawn), for which the melting point was determined as 168 °C.

`N#CCC=CCC#N` had a melting point of 76 °C.

Consider `CC(=O)c1c(O)c(C(C)(C)C)cc(C(C)(C)C)c1O`, for which the melting point is 180 °C.

The molecule `Cc1nccc(O)c1OCc1ccc(Cl)cc1` showed a melting point of 195 to 199 °C.

The molecule `COc1ccc(-c2onc(C(=O)c3ccc(C)cc3)c2S(=O)(=O)c2ccccc2)cc1` showed a melting point of 170 °C.

As to `Cc1ccc(C=C(Oc2ccccc2)c2nc3ccccc3s2)cc1`, the melting point was 161 to 165 °C.

With `BrCCC(Br)CBr` (stereo not drawn), the melting point is -18 °C.

`COc1ccc(Nc2ccc(OC)cc2)cc1` displayed a melting point of 102 °C.

For `Cc1cc([N+](=O)[O-])ccc1I`, the melting point worked out at 102 °C.

As to `NC(=O)c1c(F)c(F)c(N)c(F)c1F`, the melting point lay within 183 to 187 °C.

As to `Cc1nc[nH]c1C=O`, the melting point fell in the range of 165 to 166 °C.

Molecule `Cc1ccc([N+](=O)[O-])cc1N=C=S` showed a melting point of 60 to 62 °C.

`c1cc(CCc2ccncc2)ccn1` returned a melting point of 107 to 113 °C.

On to `O=C(Nc1nc2ccccc2s1)C(C(F)(F)F)C(F)(F)F`, for which the melting point is 174 °C.

As to `Cc1cccc(NC(=O)c2ccccc2C(=O)O)c1`, the melting point was 150 °C.

`CC(O)C1CC1` (stereo not drawn) came in with a melting point of -32.1 °C.

On to `CC(NC(=O)c1ccccc1)C(=O)O` (racemic), for which the melting point turned out to be 166 °C.

Turning to `Nc1ccc(Cl)cc1Br`, the melting point amounted to 66 °C.

For the molecule `Cc1cccc(C(C)C)c1O`, the melting point was -14.5 °C.

Consider `CCCCCc1ccc(C(C)=NO)cc1`, for which the melting point was 68 °C.

Molecule `CN1C(=C(O)Nc2ccccn2)C(=O)c2sccc2S1(=O)=O` displayed a melting point of 211 °C.

With `CC1(C)CC(=O)C(=NNc2ccc(Br)cc2)C(=O)C1`, the melting point stood at 204 °C.

For the molecule `NC(=O)c1ccc(F)c(F)c1`, the melting point was 134 °C.

On to `COC(=O)c1cccc([N+](=O)[O-])c1C(=O)OC`, for which the melting point was determined as 69 °C.

Molecule `O=[N+]([O-])c1cccnc1Cl` gave a melting point of 101 °C.

The molecule `CCCCCC(C=O)=Cc1ccccc1` returned a melting point of 80 °C.

Molecule `COC(=O)c1cc2cc(S(C)(=O)=O)ccc2[nH]1` came in with a melting point of 175 to 179 °C.

Regarding `COC(=O)c1ccc(C)c(OC)c1`, the melting point worked out at 49 °C.

What is called melting point is the temperature of the solid-liquid transition.
